Experiment [1] deals with HeLa cells (cervical cancer). Briefly: Cell proliferation measurement (Cell Titer Glo), HeLa. The format is cell-based. As to conditions: Homo sapiens, 72 h treatment, read-out: Anti-proliferation IC50 HeLa (Cervical cancer). An outline of the steps: (§1)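 Cells (1000/well; 500 for HeLa) plated overnight at 37 °C, then exposed to a ≥10-point compound dilution series for 72 h at 37 °C, DMSO 0.3% final as vehicle. Viability read by CellTiter-Glo luminescence; IC50 from 4-parameter fit against untreated wells.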
On the technique in general: ATP-based viability assays read luminescence as a measure of living cells.

A further experiment addresses T1, human full length PDE3A (Homo sapiens, UniProt Q14432).
T1 construct: Sf9 cells overexpressing human full length PDE3A; purchased SB Drug Discovery, UK; host or cells: Sf9 cells (cell extract)
Put plainly: PDE3A enzyme inhibition (3H-cAMP Scintillation Proximity Assay). Type of experiment: biochemical. The following applies: PDE3A cell extract from Sf9 cells, 60 min room temperature; read-out: Target IC50 PDE3A IC50. An outline of the steps:
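Sf9 cell extract overexpressing human full-length PDE3A, diluted for linear kinetics (<70% substrate used), in 50 mM Tris/HCl pH 7.5, 8.3 mM MgCl2, 1.7 mM EDTA, 0.2% BSA. [8-3H]cAMP substrate, 60 min at room temperature, yttrium SPA bead read-out; IC50 from sigmoidal curves of % activity.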
For orientation: Scintillation proximity formats need no separation of bound from free tracer.

Another experiment addresses T2, human full length PDE3B (Homo sapiens, UniProt Q13370).
T2 construct: Sf9 cells overexpressing human full length PDE3B; purchased SB Drug Discovery, UK; host or cells: Sf9 cells (cell extract)
Briefly: PDE3B enzyme inhibition (3H-cAMP Scintillation Proximity Assay). Type of experiment: biochemical. As to conditions: PDE3B cell extract from Sf9 cells, 60 min room temperature; read-out: Target IC50 PDE3B IC50. An outline of the steps:
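SPA with Sf9 cell extract overexpressing human full-length PDE3B, diluted for linear kinetics and <70% substrate turnover, in 50 mM Tris/HCl pH 7.5, 8.3 mM MgCl2, 1.7 mM EDTA, 0.2% BSA. [8-3H]cAMP substrate, 60 min at room temperature, stopped with yttrium SPA beads. IC50 from sigmoidal fit of % activity vs log concentration.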

For another experiment, the system named is SK-MEL-3 (melanoma). Put plainly: Cell proliferation measurement (Cell Titer Glo), SK-MEL-3. The following applies: Homo sapiens, SK-MEL3, SK-MEL-3 cells, 72 h treatment, read-out: Anti-proliferation IC50 SK-MEL-3 (melanoma). The format is cell-based. The gist of the method: as §1

T2 sequence (Q13370 whole entry): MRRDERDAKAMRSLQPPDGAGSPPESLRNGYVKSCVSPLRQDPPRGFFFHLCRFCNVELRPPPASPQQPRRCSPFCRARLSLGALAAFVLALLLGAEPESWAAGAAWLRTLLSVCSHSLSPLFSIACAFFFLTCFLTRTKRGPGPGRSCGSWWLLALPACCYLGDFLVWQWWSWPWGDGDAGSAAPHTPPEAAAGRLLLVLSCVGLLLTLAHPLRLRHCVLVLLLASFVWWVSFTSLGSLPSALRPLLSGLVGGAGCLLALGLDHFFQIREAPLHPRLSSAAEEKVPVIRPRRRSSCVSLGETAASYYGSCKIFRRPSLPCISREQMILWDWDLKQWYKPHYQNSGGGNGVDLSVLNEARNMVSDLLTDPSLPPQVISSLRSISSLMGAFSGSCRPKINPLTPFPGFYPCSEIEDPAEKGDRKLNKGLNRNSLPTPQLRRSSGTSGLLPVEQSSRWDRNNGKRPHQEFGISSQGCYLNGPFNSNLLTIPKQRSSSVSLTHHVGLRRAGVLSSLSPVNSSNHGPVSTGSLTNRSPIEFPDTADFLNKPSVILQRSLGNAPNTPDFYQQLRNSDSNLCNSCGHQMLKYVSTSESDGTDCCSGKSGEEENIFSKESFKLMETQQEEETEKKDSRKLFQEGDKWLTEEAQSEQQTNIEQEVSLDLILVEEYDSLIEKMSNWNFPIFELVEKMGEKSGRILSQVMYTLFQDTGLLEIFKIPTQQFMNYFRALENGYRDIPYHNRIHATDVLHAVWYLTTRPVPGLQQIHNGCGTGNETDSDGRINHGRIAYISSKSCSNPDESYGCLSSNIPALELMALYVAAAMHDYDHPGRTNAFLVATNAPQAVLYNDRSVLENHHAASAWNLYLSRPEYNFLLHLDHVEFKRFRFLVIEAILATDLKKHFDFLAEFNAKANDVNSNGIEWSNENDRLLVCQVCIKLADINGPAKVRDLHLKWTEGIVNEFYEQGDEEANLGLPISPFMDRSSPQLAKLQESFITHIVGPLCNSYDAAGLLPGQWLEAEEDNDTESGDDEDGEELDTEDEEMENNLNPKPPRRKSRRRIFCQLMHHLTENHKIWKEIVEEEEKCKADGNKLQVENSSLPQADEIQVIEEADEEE
T1 sequence (Q14432 whole entry): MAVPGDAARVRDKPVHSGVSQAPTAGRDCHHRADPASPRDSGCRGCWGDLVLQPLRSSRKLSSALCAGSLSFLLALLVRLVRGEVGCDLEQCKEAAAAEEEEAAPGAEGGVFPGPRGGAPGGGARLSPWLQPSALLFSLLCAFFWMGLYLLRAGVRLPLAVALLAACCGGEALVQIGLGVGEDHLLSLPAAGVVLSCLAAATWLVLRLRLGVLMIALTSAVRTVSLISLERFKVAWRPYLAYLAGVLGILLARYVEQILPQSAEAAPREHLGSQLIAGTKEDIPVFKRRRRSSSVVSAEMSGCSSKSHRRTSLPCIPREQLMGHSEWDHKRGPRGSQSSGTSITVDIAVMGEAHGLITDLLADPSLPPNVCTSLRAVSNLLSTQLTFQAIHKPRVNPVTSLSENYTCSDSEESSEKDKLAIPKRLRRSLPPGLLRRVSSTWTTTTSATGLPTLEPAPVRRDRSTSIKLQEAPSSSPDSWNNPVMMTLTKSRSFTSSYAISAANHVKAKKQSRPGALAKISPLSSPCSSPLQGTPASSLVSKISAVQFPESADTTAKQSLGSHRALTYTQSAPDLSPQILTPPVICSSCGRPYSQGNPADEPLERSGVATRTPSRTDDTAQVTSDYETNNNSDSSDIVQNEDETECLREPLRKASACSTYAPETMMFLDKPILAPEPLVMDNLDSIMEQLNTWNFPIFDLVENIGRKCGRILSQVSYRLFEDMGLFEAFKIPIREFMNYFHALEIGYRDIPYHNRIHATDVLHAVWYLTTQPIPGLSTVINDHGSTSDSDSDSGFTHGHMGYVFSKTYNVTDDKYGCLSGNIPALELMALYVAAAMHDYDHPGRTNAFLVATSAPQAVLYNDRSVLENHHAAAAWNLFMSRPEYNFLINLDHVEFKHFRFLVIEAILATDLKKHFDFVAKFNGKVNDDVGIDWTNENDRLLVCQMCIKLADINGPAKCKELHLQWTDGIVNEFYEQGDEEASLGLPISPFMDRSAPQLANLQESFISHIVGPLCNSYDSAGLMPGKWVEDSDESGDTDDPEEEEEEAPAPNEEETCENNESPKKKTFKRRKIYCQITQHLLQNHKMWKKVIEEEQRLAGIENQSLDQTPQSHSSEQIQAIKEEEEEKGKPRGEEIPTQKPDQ

In the case of `Cc1cc(C2=NNC(=O)CC2)ccc1-c1cnc(N)nc1` [Example 91, 6-[4-(2-aminopyrimidin-5-yl)-3-methylphenyl]-4,5-dihydropyridazin-3(2H)-one], the IC50 in experiment [1] is 0.0519 µM; on human full length PDE3A, 0.057 µM; on human full length PDE3B it was 0.073 µM; in the experiment with SK-MEL-3 (melanoma) it was greater than 0.1 µM.

Consider `Cc1ncc(-c2ccc(C3=NNC(=O)CC3)cc2C)cn1` [Example 92, 6-[3-methyl-4-(2-methylpyrimidin-5-yl)phenyl]-4,5-dihydropyridazin-3(2H)-one], for which the IC50 in experiment [1] is 0.0423 µM; at human full length PDE3A, 0.061 µM; at human full length PDE3B, 0.088 µM; in the experiment on SK-MEL-3 (melanoma) it was greater than 0.1 µM.

With `Cc1ccc(-c2ccc(C3=NNC(=O)CC3)cc2C)cn1` [Example 93, 6-[3-methyl-4-(6-methylpyridin-3-yl)phenyl]-4,5-dihydropyridazin-3(2H)-one], the IC50 in experiment [1] came out at 0.00539 µM; at human full length PDE3A it was 0.038 µM; at human full length PDE3B it was 0.049 µM; in the experiment with SK-MEL-3 (melanoma) it was 0.0247 µM.

Turning to `Cc1ccc(-c2ccc(C3=NNC(=O)CC3)cc2C)c(F)c1` [Example 94, 6-(2′-fluoro-2,4′-dimethyl[1,1′-biphenyl]-4-yl)-4,5-dihydropyridazin-3(2H)-one], the IC50 amounted to 0.00701 µM in experiment [1], 0.19 µM on human full length PDE3A, 0.175 µM at human full length PDE3B and 0.0369 µM with SK-MEL-3 (melanoma).

In the case of `Cc1cc(C2=NNC(=O)CC2)ccc1-c1cc(F)c(F)cc1F` [Example 95, 6-(2′,4′,5′-trifluoro-2-methyl[1,1′-biphenyl]-4-yl)-4,5-dihydropyridazin-3(2H)-one], the IC50 in experiment [1] was found to be 0.00932 µM; on human full length PDE3A, 0.18 µM; at human full length PDE3B, 0.2 µM; in the experiment with SK-MEL-3 (melanoma), 0.0607 µM.

For the molecule `Cc1cc(C2=NNC(=O)CC2)ccc1-c1cc(F)c(F)c(F)c1` [Example 96, 6-(3′,4′,5′-trifluoro-2-methyl[1,1′-biphenyl]-4-yl)-4,5-dihydropyridazin-3(2H)-one], the IC50 is 0.0185 µM in experiment [1], 0.31 µM on human full length PDE3A, 0.26 µM at human full length PDE3B and greater than 0.1 µM in the experiment on SK-MEL-3 (melanoma).

In the case of `Cc1cc(C2=NNC(=O)CC2)ccc1-c1ccc(F)c(F)c1F` [Example 97, 6-(2′,3′,4′-trifluoro-2-methyl[1,1′-biphenyl]-4-yl)-4,5-dihydropyridazin-3(2H)-one], the IC50 in experiment [1] worked out at 0.0121 µM; at human full length PDE3A it was 0.17 µM; on human full length PDE3B it was 0.12 µM; with SK-MEL-3 (melanoma), 0.082 µM.

Take `Cc1cc(C2=NNC(=O)CC2)ccc1-c1cc(F)ccc1F` [Example 98, 6-(2′,5′-difluoro-2-methyl[1,1′-biphenyl]-4-yl)-4,5-dihydropyridazin-3(2H)-one]: the IC50 in experiment [1] was 0.0127 µM; on human full length PDE3A it was 0.18 µM; on human full length PDE3B, 0.12 µM; in the experiment on SK-MEL-3 (melanoma), 0.0643 µM.

For the molecule `Cc1cc(C2=NNC(=O)CC2)ccc1-c1ccccc1C#N` [Example 99, 2′-methyl-4′-(6-oxo-1,4,5,6-tetrahydropyridazin-3-yl)[1,1′-biphenyl]-2-carbonitrile], the IC50 in experiment [1] is 0.0399 µM; on human full length PDE3A it was 0.28 µM; on human full length PDE3B it was 0.53 µM; in the experiment on SK-MEL-3 (melanoma) it was greater than 0.1 µM.

In the case of `Cc1cc(C2=NNC(=O)CC2)ccc1-c1ccc(C#N)cc1` [Example 100, 2′-methyl-4′-(6-oxo-1,4,5,6-tetrahydropyridazin-3-yl)[1,1′-biphenyl]-4-carbonitrile], the IC50 was 0.0225 µM in experiment [1], 0.058 µM on human full length PDE3A, 0.059 µM at human full length PDE3B and greater than 0.1 µM in the experiment with SK-MEL-3 (melanoma).

As for `Cc1cc(C2=NNC(=O)CC2)ccc1-c1cccc(O)c1` [Example 101, 6-(3′-hydroxy-2-methyl[1,1′-biphenyl]-4-yl)-4,5-dihydropyridazin-3(2H)-one], the IC50 in experiment [1] was found to be 0.0146 µM; on human full length PDE3A, 0.067 µM; on human full length PDE3B, 0.067 µM; with SK-MEL-3 (melanoma), 0.0363 µM.

On to `Cc1cc(C2=NNC(=O)CC2)ccc1-c1ccccc1O` [Example 102, 6-(2′-hydroxy-2-methyl[1,1′-biphenyl]-4-yl)-4,5-dihydropyridazin-3(2H)-one], for which the IC50 is 0.0234 µM in experiment [1], 0.46 µM on human full length PDE3A, 0.555 µM on human full length PDE3B and greater than 0.1 µM with SK-MEL-3 (melanoma).

As for `Cc1cc(C2=NNC(=O)CC2)ccc1-c1cccc(N)c1` [Example 103, 6-(3′-amino-2-methyl[1,1′-biphenyl]-4-yl)-4,5-dihydropyridazin-3(2H)-one], the IC50 in experiment [1] was 0.0368 µM; on human full length PDE3A, 0.17 µM; on human full length PDE3B it was 0.2 µM; in the experiment with SK-MEL-3 (melanoma) it was greater than 0.1 µM.

Take `Cc1cc(C2=NNC(=O)CC2)ccc1-c1cccc(F)c1F` [Example 104, 6-(2′,3′-difluoro-2-methyl[1,1′-biphenyl]-4-yl)-4,5-dihydropyridazin-3(2H)-one]: the IC50 in experiment [1] is 0.0134 µM; on human full length PDE3A, 0.12 µM; on human full length PDE3B, 0.12 µM; in the experiment with SK-MEL-3 (melanoma) it was 0.0708 µM.

On to `Cc1cc(C2=NNC(=O)CC2)ccc1-c1cc(F)cc(F)c1` [Example 105, 6-(3′,5′-difluoro-2-methyl[1,1′-biphenyl]-4-yl)-4,5-dihydropyridazin-3(2H)-one], for which the IC50 in experiment [1] was 0.0276 µM; at human full length PDE3A, 0.2 µM; on human full length PDE3B, 0.2 µM; in the experiment with SK-MEL-3 (melanoma), greater than 0.1 µM.

Take `Cc1cc(C2=NNC(=O)CC2)ccc1-c1ccc(F)cc1F` [Example 106, 6-(2′,4′-difluoro-2-methyl[1,1′-biphenyl]-4-yl)-4,5-dihydropyridazin-3(2H)-one]: the IC50 in experiment [1] was determined as 0.00479 µM; at human full length PDE3A, 0.11 µM; on human full length PDE3B, 0.1 µM; in the experiment on SK-MEL-3 (melanoma), 0.0214 µM.

Turning to `Cc1ccc(-c2ccc(C3=NNC(=O)CC3)cc2C)cc1F` [Example 107, 6-(3′-fluoro-2,4′-dimethyl[1,1′-biphenyl]-4-yl)-4,5-dihydropyridazin-3(2H)-one], the IC50 in experiment [1] turned out to be 0.00926 µM; at human full length PDE3A it was 0.27 µM; at human full length PDE3B, 0.19 µM; in the experiment with SK-MEL-3 (melanoma), 0.0524 µM.

`Cc1cc(C2=NNC(=O)CC2)ccc1-c1ccc(Cl)c(N)c1` [Example 108, 6-(3′-amino-4′-chloro-2-methyl[1,1′-biphenyl]-4-yl)-4,5-dihydropyridazin-3(2H)-one]: the IC50 came out at 0.00654 µM in experiment [1], 0.16 µM at human full length PDE3A, 0.21 µM at human full length PDE3B and 0.0178 µM with SK-MEL-3 (melanoma).

For `Cc1cc(C2=NNC(=O)CC2)ccc1-c1ccccc1F` [Example 109, 6-(2′-fluoro-2-methyl[1,1′-biphenyl]-4-yl)-4,5-dihydropyridazin-3(2H)-one], the IC50 in experiment [1] turned out to be 0.00563 µM; at human full length PDE3A, 0.15 µM; at human full length PDE3B, 0.15 µM; in the experiment with SK-MEL-3 (melanoma), 0.0141 µM.

For `Cc1cc(C2=NNC(=O)CC2)ccc1-c1c(F)cccc1F` [Example 110, 6-(2′,6′-difluoro-2-methyl[1,1′-biphenyl]-4-yl)-4,5-dihydropyridazin-3(2H)-one], the IC50 came out at 0.00857 µM in experiment [1], 0.24 µM at human full length PDE3A, 0.26 µM on human full length PDE3B and 0.0392 µM in the experiment on SK-MEL-3 (melanoma).

Consider `COc1ccccc1-c1ccc(C2=NNC(=O)CC2)cc1C` [Example 111, 6-(2′-methoxy-2-methyl[1,1′-biphenyl]-4-yl)-4,5-dihydropyridazin-3(2H)-one], for which the IC50 in experiment [1] is 0.0396 µM; on human full length PDE3A it was 0.042 µM; at human full length PDE3B, 0.032 µM; with SK-MEL-3 (melanoma) it was greater than 0.1 µM.

As to `Cc1cc(C2=NNC(=O)CC2)ccc1-c1cccc(F)c1` [Example 112, 6-(3′-fluoro-2-methyl[1,1′-biphenyl]-4-yl)-4,5-dihydropyridazin-3(2H)-one], the IC50 in experiment [1] was determined as 0.0139 µM; at human full length PDE3A, 0.14 µM; at human full length PDE3B it was 0.11 µM; in the experiment on SK-MEL-3 (melanoma), 0.0582 µM.

Consider `COc1cccc(-c2ccc(C3=NNC(=O)CC3)cc2C)c1` [Example 113, 6-(3′-methoxy-2-methyl[1,1′-biphenyl]-4-yl)-4,5-dihydropyridazin-3(2H)-one], for which the IC50 was 0.033 µM in experiment [1], 0.088 µM at human full length PDE3A, 0.091 µM on human full length PDE3B and greater than 0.1 µM in the experiment with SK-MEL-3 (melanoma).

Regarding `Cc1cc(C2=NNC(=O)CC2)ccc1-c1cccc(C(N)=O)c1` [Example 114, 2′-methyl-4′-(6-oxo-1,4,5,6-tetrahydropyridazin-3-yl)[1,1′-biphenyl]-3-carboxamide], the IC50 in experiment [1] was 0.0463 µM; on human full length PDE3A, 0.036 µM; at human full length PDE3B, 0.053 µM; in the experiment with SK-MEL-3 (melanoma) it was greater than 0.1 µM.

With `Cc1cc(C2=NNC(=O)CC2)ccc1-c1ccc(N)cc1` [Example 115, 6-(4′-amino-2-methyl[1,1′-biphenyl]-4-yl)-4,5-dihydropyridazin-3(2H)-one], the IC50 is 0.00787 µM in experiment [1], 0.047 µM on human full length PDE3A, 0.08 µM on human full length PDE3B and 0.0373 µM with SK-MEL-3 (melanoma).

Source of the values: patent publication US11897867B2, “6-phenyl-4,5-dihydropyridazin-3(2H)-one derivatives as PDE3A and PDE3B inhibitors for treating cancer” (Bayer Aktiengesellschaft, priority 2017, dated 2024).
